Experimental data: US20240425898A1, “BACTERIA CLASSIFICATION AND ANALYSIS” (SYSMEX ASTREGO AB, priority 2023, published 2024)

Test system: bacteria in the urine sample
Test: Gram classification by treatment impact in microfluidic device (FIGS. 10 to 13)
Type: cell-based, Escherichia coli
Conditions: LIN 4 μg/ml and VAN 32 μg/ml at T1=25 min; NaCl 340 mM at 10-22 min
From the text: In this embodiment, bacterial cells from a biological sample are exposed to four different treatments (Tr1 to Tr4). […] The combination of LIN/VAN in the first treatment Tr1 is generally effective against gram-positive bacteria but has no or little antibacterial activity against gram-negative bacteria. […] AMC used in the third treatment Tr3 has broad antibacterial activity against both gram-positive and gram-negative bacteria. It, though, generally has slower antibacterial activity against Staphylococcus as compared to against Enterococcus. FOS used in the fourth treatment Tr4 has a broad antibacterial activity against both gram-positive and gram-negative bacteria. It, though, generally has a slower antibacterial activity against Staphylococcus as compared to against Enterococcus. Bacterial cells from the biological sample are preferably exposed to respective treatment in parallel. In this example, a respective impact parameter is determined for each treatment after a respective treatment period (T1 to T5) and then compared to a respective cutoff or threshold value. The respective treatment periods T1 to T5 could be the same but are typically different and adapted to the particular antimicrobial agent or mixture or salt or salt mixture. […] A urine sample was loaded into the microfluidic device 5 and bacterial growth was monitored in the different sets 130 of cell channels. […]

[Cl-].[Na+] [NaCl, sodium chloride]
candidate gram classification indicated by treatment: gram negative
